{"source": "patent US8361758B2", "about": "“Microorganism of Corynebacterium genus having resistance to kanamycin and enhanced L-lysine productivity and method of producing L-lysine using the same” (priority 2005, dated 2013)", "key": {"[1]": {"tested_on": "Corynebacterium glutamicum KFCC10881-CJP5103", "experiment": "Resistance to kanamycin: growth on minimal agar plate medium containing kanamycin", "format": "cell-based", "settings": "Kanamycin 5 mg/l, cultured four days, kanamycin-resistant mutant", "experimental": "(§1) Next, an experiment of resistance to kanamycin with respect to the selected mutant resistant to kanamycin, Corynebacterium glutamicum KFCC10881-CJP5103, and the parent bacteria was performed. First, the two microorganisms were cultured in a Luria Bertani (LB) liquid medium for 16 hours, and then the cells were washed using sterile normal saline two times. Then, the washed cells were properly diluted and the resulting product was cultured in a minimal agar plate medium containing kanamycin having a concentration of 5 mg/l for four days to measure productivity of each microorganism. A composition of the minimal agar plate medium is the same as follows: 10 g of glucose, 2 g of (NH4)2SO4, 2 g of urea, 1.0 g of KH2PO4, 3.0 g of K2HPO4, 0.5 g of MgSO4.7H2O, 10 mg of FeSO4.7H2O, 10 mg of MnSO4.7H2O, 100 μg of biotin, 100 lag of thiamine. HCl, 100 μg of CaCl2.2H2O, 80 μg of Na2B4O7.10H2O, 40 μg of (NH4)6MoO27.4H2O, 10 μg of ZnSO4.7 H2O, 300 μg of CuSO4.7 H2O, 10 μg of MnCl2.4H2O, 1 mg of FeCl3.6H2O, 20 g of agar, 0.1 g of L-leucine if necessary, 0.1 g of L-threonine if necessary, 0.1 g of L-methionine if necessary, per 1 L of distilled water (pH 7.0).\n(§2) The results of measuring productivity of the mutant and the parent bacteria in a kanamycin-containing medium are shown in Table. 1."}, "[2]": {"tested_on": "Corynebacterium glutamicum KFCC10881", "experiment": "Resistance to kanamycin: growth on minimal agar plate medium containing kanamycin", "format": "cell-based", "settings": "Kanamycin 5 mg/l, cultured four days, parent strain", "experimental": "as §1, §2"}}, "data": [{"smiles": "NC[C@H]1O[C@H](O[C@H]2[C@H](O)[C@@H](O[C@H]3O[C@H](CO)[C@@H](O)[C@H](N)[C@H]3O)[C@H](N)C[C@@H]2N)[C@H](O)[C@@H](O)[C@@H]1O", "note": "[Kanamycin, kanamycin]", "values": [{"measurement": "Growth of KFCC-10881-CJP5103 in kanamycin-containing medium", "setting": "[1]", "result": "+++"}, {"measurement": "Growth of KFCC-10881 in kanamycin-containing medium", "setting": "[2]", "result": "−"}]}]}
